Data from PubChem BioAssay (NCI).
Converted amounts (≈) assume the structure as drawn.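 Values below derive from 48-hour exposures of cells grown in 96-well plates, with endpoints linearly interpolated between the two concentrations bracketing the appropriate inhibition level. Abbreviation: GI50, concentration required for 50% inhibition of growth. TGI: total growth inhibition.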

Columns and labels:
Assay in all cases: growth of human tumour cells (NCI), 48 h
M19-MEL melanoma = test system: M19-MEL melanoma
DMS 114 small cell lung = test system: DMS 114 small cell lung
RXF-631 renal = test system: RXF-631 renal
LXFL 529 NSCLC = test system: LXFL 529 NSCLC
DLD-1 colon = test system: DLD-1 colon
MDA-N = test system: MDA-N
HOP-18 NSCLC = test system: HOP-18 NSCLC

Row | Structure (SMILES) | TGI (M19-MEL melanoma) | TGI (DMS 114 small cell lung) | TGI (RXF-631 renal) | TGI (LXFL 529 NSCLC) | TGI (DLD-1 colon) | TGI (MDA-N) | TGI (HOP-18 NSCLC) | GI50 (MDA-N)
1 | CC1=C(CC2C(=O)N(c3ccccc3)S(=O)(=O)NC2C)C(=O)N(c2ccccc2)S(=O)(=O)N1C (stereo unspecified) | > 100 µM | > 100 µM | > 100 µM | > 100 µM | > 100 µM | – | – | –
2 | O=C(O)c1ccccc1NC(=S)c1ccccc1 | – | – | – | – | – | > 100 µM | – | –
3 | Cc1ccccc1-n1c(N)c(-c2nc3ccccc3[nH]2)sc1=S | 50.5 µM | 59 µM | 49.1 µM | 50.4 µM | 64.6 µM | – | 72.8 µM | –
4 | O=C1C=C(O)C(=Cc2c(O)cc(O)cc2O)C(O)=C1 | > 100 µM | > 100 µM | > 100 µM | > 100 µM | > 100 µM | – | > 100 µM | –
5 | O=C(NCCNCCO)c1cccc2ccc(-c3ccccc3)nc12 | 15.7 µM | 19.8 µM | 12.1 µM | – | 19.5 µM | – | 45.8 µM | –
6 | COC(=O)C(C(=O)C(=O)Nc1ccc([N+](=O)[O-])cc1)c1nc2ccc([N+](=O)[O-])cc2[nH]c1=O (stereo unspecified) | > 100 µM | > 100 µM | > 100 µM | > 100 µM | > 100 µM | – | > 100 µM | –
7 | N[C@H](COCc1ccccc1)c1ccccc1 | 64.3 µM | 56.3 µM | – | 51.5 µM | > 100 µM | – | > 89.8 µM | –
8 | COc1ccc(OC(=O)CC2Cc3cc(OC)c(OC)c(OC)c3-c3ccc(SC)c(=O)cc32)cc1 (stereo unspecified) | > 100 µM | 5.52 µM | > 100 µM | 11.3 µM | > 34.6 µM | – | – | –
9 | N#CCN1C(=O)c2cc([N+](=O)[O-])cc3cc([N+](=O)[O-])cc(c23)C1=O | 37.7 µM | 37.5 µM | > 60.6 µM | > 50.6 µM | 29.4 µM | – | > 100 µM | –
10 | Cc1ccc(NC(=O)C(=O)C(C(=O)/C=C/c2ccccc2)C2OC(=O)c3ccccc32)c(C)c1 (stereo unspecified) | > 100 µM | > 100 µM | > 100 µM | > 100 µM | > 100 µM | – | – | –
11 | Cc1cc(C)c(C2CNCc3cc4c(cc32)CNCC4c2c(C)cc(C)cc2C)c(C)c1 (stereo unspecified) | – | – | – | – | – | 4.3 µg/mL | – | 2.05 µg/mL (≈ 4.83 µM)
12 | Cc1cc(=O)c2c(O)cc3c(c2o1)CC=C(COC1OC(COC2OC(CO)C(O)C(O)C2O)C(O)C(O)C1O)CO3 (stereo unspecified) | > 100 µM | > 100 µM | – | > 100 µM | > 100 µM | – | – | –
13 | CC1=NN(c2ccccc2)C(=O)/C1=C\c1ccc([N+](=O)[O-])cc1 | – | 50 µM | 77.4 µM | > 100 µM | > 100 µM | – | – | –
14 | c1ccc2c(c1)CCc1c-2n[nH]c1-c1[nH]nc2c1CCc1ccccc1-2 | > 100 µM | > 100 µM | > 100 µM | > 100 µM | > 100 µM | – | > 100 µM | –
15 | CCOc1ccc(NC(=O)CCc2nnc(SC)o2)cc1 | > 100 µM | > 100 µM | – | > 100 µM | > 100 µM | – | > 100 µM | –
16 | COc1cc(C2(C)SCCCS2)cc(OC)c1OC | > 100 µM | > 100 µM | > 100 µM | > 100 µM | > 100 µM | – | > 100 µM | –
17 | NC1=NC(=O)C(CC(=O)Nc2ccc(Cl)cc2Cl)S1 (stereo unspecified) | > 100 µM | – | – | > 100 µM | > 100 µM | – | – | –
18 | O=C(Cc1nc2ccccc2o1)C(=O)Nc1cccc(C(F)(F)F)c1 | > 100 µM | > 100 µM | > 100 µM | > 100 µM | > 100 µM | – | > 100 µM | –

Row | Structure (SMILES) | TGI (M19-MEL melanoma) | TGI (DMS 114 small cell lung) | TGI (RXF-631 renal) | TGI (LXFL 529 NSCLC) | TGI (DLD-1 colon) | TGI (MDA-N) | TGI (HOP-18 NSCLC) | GI50 (MDA-N)
19 | Cc1cccc(NC(=O)/C(=N\N)C(c2cnc3ccc([N+](=O)[O-])cc3n2)[N+](=O)[O-])c1C (stereo unspecified) | > 100 µM | > 100 µM | > 100 µM | > 100 µM | > 100 µM | – | > 100 µM | –
20 | c1cc(-c2cn3c(n2)SCC3)ccn1 | > 100 µM | > 89.6 µM | – | > 100 µM | > 100 µM | – | > 100 µM | –
21 | N#CC1(C#N)C(c2ccccc2)C=CC12OCCCO2 (stereo unspecified) | > 100 µM | 67.8 µM | > 100 µM | 95.2 µM | 95.4 µM | – | > 100 µM | –
22 | CC(=O)/C(=C\c1ccccc1O)C(=O)Nc1ccccc1C | > 100 µM | > 100 µM | – | 98.6 µM | 79.1 µM | – | > 100 µM | –
23 | CCOC(=O)/C(I)=C/c1cc(OC)c(OC)c(OC)c1 | 19.3 µM | 9.49 µM | – | 26.8 µM | 35.2 µM | – | 24 µM | –
24 | Fc1cccc(F)c1C(Nc1nncs1)Nc1nncs1 | – | – | – | – | – | > 100 µM | – | –
25 | COc1ccc(-c2[nH]c3ccccc3c2CCNS(=O)(=O)c2ccc(C)cc2)cc1 | > 10 µM | > 10 µM | > 10 µM | > 10 µM | > 10 µM | – | > 10 µM | –
26 | CC(=O)O[C@@H]1C[C@@]2(C)[C@@H]3CC=C4[C@@H](C[C@H](O)C(=O)C4(C)C)[C@]3(C)C(=O)C[C@]2(C)[C@H]1[C@@](C)(O)C(=O)/C=C/C(C)(C)OC(C)=O | – | – | – | – | – | 14.8 µM | – | –
27 | CCOC(=O)C1Nc2ccccc2[C@H]2OCC[C@@H]12 (stereo partly specified) | > 100 µM | – | – | – | > 100 µM | – | > 100 µM | –
28 | O=Cc1ccc2c(c1I)OCO2 | > 100 µM | – | – | – | > 100 µM | – | > 100 µM | –
29 | Nc1nc(N)c(CCCCc2ccccc2)c(N)n1 | > 100 µM | > 100 µM | – | > 100 µM | > 100 µM | > 100 µM | – | –
30 | CCCC(S(=O)(=O)c1ccccc1)S(=O)(=O)c1ccccc1 | > 100 µM | > 100 µM | > 100 µM | > 100 µM | > 100 µM | – | – | –
31 | N#CNc1nc(N)c(-c2ccc(Cl)cc2)c(C(=O)Nc2nccs2)n1 | > 100 µM | > 100 µM | – | > 100 µM | > 100 µM | – | > 100 µM | –
32 | Cc1cc2c(c(C(N)=O)c1C)-c1cc(Cl)cc(Cl)c1C2=O | > 100 µM | > 100 µM | – | > 100 µM | > 100 µM | – | > 100 µM | –
33 | CC(C)(C)c1cc2nc(c1)C(C(F)(F)F)(C(F)(F)F)OB(Br)OC2(C(F)(F)F)C(F)(F)F | 12.2 µM | 0.421 µM | 5.35 µM | 13.9 µM | 12.8 µM | – | – | –
34 | Oc1cc(-n2cccn2)c(O)cc1-n1cccn1 | 51.1 µM | > 67.6 µM | > 100 µM | 34.7 µM | > 94.8 µM | 33.5 µM | > 100 µM | –
35 | CC1=C(C(=O)Nc2ccc(Cl)c(Cl)c2)C(c2ccc([N+](=O)[O-])cc2)C(C(=O)Nc2ccc(Cl)c(Cl)c2)=C(C)N1 | 3.97 µM | 9.66 µM | 6.69 µM | 11.8 µM | > 41.7 µM | – | 19.2 µM | –
36 | CN=C1OC2(c3ccccc3)C3=C(OC(=NC)N2C)C(=O)OC3(c2ccccc2)N1C (stereo unspecified) | – | – | – | – | – | > 100 µM | – | –
